Source: ChEMBL document CHEMBL4507305, “Data for DCP probe TP-024” (2021)

What was measured:
[1] = molecular target: Casein kinase I isoform epsilon (Homo sapiens) (UniProt P49674); details: Compound concentration 1000.0 nM
[2] = molecular target: Dual specificity tyrosine-phosphorylation-regulated kinase 1B (Homo sapiens) (UniProt Q9Y463); details: Compound concentration 1000.0 nM
[3] = molecular target: Activin receptor type-1 (Homo sapiens) (UniProt Q04771); details: Compound concentration 1000.0 nM
[4] = molecular target: Cyclin-dependent kinase 2 (Homo sapiens) (UniProt P24941); details: Compound concentration 1000.0 nM
[5] = molecular target: Serine/threonine-protein kinase PAK 5 (Homo sapiens) (UniProt Q9P286); details: Compound concentration 1000.0 nM
[6] = molecular target: Myosin light chain kinase 2, skeletal/cardiac muscle (Homo sapiens) (UniProt Q9H1R3); details: Compound concentration 1000.0 nM
Myosin light chain kinase 2, skeletal/cardiac muscle (Homo sapiens), sequence (Q9H1R3 whole entry): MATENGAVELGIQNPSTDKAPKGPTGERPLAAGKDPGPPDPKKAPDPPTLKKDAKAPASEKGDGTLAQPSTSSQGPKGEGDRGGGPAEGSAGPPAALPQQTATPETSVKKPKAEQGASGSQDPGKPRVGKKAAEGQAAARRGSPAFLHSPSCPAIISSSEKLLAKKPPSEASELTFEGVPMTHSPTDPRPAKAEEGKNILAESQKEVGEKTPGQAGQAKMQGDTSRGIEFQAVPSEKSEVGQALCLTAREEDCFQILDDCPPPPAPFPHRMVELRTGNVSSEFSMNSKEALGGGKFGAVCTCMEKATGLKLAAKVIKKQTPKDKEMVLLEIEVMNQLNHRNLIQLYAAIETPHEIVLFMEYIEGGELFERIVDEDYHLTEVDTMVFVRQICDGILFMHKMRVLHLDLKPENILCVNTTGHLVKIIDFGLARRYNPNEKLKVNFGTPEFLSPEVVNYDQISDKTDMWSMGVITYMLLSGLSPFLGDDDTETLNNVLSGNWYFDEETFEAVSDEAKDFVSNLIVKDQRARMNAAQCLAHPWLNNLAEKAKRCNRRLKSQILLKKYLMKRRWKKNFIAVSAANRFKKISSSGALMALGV

[7] = molecular target: Serine/threonine-protein kinase DCLK2 (Homo sapiens) (UniProt Q8N568); details: Compound concentration 1000.0 nM
[8] = molecular target: Calcium/calmodulin-dependent protein kinase type 1G (Homo sapiens) (UniProt Q96NX5); details: Compound concentration 1000.0 nM
[9] = molecular target: Mitogen-activated protein kinase 6 (Homo sapiens) (UniProt Q16659); details: Compound concentration 1000.0 nM
Mitogen-activated protein kinase 6 (Homo sapiens), sequence (Q16659 whole entry): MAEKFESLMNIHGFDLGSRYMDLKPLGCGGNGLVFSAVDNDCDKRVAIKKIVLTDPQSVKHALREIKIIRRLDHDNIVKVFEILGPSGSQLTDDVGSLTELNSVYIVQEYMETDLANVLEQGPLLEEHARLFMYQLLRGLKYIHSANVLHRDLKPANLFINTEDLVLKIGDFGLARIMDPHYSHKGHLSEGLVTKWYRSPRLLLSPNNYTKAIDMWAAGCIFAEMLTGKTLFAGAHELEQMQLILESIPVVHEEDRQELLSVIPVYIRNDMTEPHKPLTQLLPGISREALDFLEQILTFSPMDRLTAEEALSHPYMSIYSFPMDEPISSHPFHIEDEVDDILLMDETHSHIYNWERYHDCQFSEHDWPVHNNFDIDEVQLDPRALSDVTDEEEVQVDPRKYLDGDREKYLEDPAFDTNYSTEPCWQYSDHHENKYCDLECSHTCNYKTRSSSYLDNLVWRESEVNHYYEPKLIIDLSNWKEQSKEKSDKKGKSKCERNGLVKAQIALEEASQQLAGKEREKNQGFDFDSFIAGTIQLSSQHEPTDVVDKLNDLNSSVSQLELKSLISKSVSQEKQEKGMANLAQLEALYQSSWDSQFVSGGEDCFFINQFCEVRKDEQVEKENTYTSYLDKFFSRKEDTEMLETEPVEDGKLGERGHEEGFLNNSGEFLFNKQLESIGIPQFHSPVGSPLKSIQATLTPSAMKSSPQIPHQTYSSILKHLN

[10] = molecular target: Tyrosine-protein kinase ABL1 (Homo sapiens) (UniProt P00519); details: Compound concentration 1000.0 nM
[11] = molecular target: Casein kinase I isoform gamma-1 (Homo sapiens) (UniProt Q9HCP0); details: Compound concentration 1000.0 nM
[12] = molecular target: Tyrosine-protein kinase CSK (Homo sapiens) (UniProt P41240); details: Compound concentration 1000.0 nM
[13] = system: Tyrosine-protein kinase ABL1 (Homo sapiens), P00519 [T315I]; details: Compound concentration 1000.0 nM
[14] = molecular target: Ribosomal protein S6 kinase alpha-1 (Homo sapiens) (UniProt Q15418); details: Compound concentration 1000.0 nM
[15] = molecular target: MAP/microtubule affinity-regulating kinase 4 (Homo sapiens) (UniProt Q96L34); details: Compound concentration 1000.0 nM
[16] = system: Tyrosine-protein kinase ABL1 (Homo sapiens), P00519 [F317I]; details: Compound concentration 1000.0 nM
[17] = molecular target: Rho-associated protein kinase 1 (Homo sapiens) (UniProt Q13464); details: Compound concentration 1000.0 nM
[18] = molecular target: ALK tyrosine kinase receptor (Homo sapiens) (UniProt Q9UM73); details: Compound concentration 1000.0 nM
ALK tyrosine kinase receptor (Homo sapiens), sequence (Q9UM73 19-1620 limits assumed): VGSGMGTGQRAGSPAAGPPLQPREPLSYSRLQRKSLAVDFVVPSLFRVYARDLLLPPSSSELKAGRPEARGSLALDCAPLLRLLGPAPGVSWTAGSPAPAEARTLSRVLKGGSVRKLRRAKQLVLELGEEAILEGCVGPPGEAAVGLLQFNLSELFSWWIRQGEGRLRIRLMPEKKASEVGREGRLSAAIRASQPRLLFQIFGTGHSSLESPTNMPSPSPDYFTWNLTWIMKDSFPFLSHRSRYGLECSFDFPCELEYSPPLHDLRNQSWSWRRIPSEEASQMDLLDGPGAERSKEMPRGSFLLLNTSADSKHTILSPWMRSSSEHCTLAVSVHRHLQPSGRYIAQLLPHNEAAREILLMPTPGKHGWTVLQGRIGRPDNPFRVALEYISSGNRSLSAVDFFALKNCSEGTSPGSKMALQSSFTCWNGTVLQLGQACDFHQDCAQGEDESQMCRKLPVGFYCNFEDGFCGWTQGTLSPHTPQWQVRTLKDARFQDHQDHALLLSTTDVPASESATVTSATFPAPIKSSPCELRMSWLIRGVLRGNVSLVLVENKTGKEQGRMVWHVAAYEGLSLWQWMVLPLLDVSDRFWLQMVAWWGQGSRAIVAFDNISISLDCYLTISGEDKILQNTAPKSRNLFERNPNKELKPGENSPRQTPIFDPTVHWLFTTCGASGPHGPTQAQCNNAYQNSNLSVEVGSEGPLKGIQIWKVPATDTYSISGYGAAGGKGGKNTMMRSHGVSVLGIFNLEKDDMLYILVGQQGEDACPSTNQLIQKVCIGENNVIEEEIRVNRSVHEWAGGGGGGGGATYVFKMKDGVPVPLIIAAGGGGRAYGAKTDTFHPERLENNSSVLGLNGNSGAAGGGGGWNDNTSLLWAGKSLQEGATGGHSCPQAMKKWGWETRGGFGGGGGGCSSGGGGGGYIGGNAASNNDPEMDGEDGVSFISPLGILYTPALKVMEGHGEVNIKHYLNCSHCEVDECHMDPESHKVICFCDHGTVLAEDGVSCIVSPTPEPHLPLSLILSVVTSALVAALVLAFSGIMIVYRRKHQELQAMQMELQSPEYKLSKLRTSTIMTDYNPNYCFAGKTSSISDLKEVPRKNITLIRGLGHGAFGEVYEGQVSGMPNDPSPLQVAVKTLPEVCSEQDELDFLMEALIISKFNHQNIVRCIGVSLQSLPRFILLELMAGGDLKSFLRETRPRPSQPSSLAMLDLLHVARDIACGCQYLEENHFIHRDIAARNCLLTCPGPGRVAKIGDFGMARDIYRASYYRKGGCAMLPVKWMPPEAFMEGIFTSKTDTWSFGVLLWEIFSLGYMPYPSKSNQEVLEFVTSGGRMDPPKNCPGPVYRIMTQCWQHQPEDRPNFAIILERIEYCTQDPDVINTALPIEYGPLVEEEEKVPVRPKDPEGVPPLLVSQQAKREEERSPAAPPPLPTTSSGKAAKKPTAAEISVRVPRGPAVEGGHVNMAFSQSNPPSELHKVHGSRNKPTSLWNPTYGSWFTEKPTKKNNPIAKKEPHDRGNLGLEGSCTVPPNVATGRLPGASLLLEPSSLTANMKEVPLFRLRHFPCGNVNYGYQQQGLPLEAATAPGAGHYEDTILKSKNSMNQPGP

[19] = molecular target: Serine/threonine-protein kinase 38 (Homo sapiens) (UniProt Q15208); details: Compound concentration 1000.0 nM
[20] = molecular target: Rho-associated protein kinase 2 (Homo sapiens) (UniProt O75116); details: Compound concentration 1000.0 nM
Rho-associated protein kinase 2 (Homo sapiens), sequence (O75116 whole entry, looked up): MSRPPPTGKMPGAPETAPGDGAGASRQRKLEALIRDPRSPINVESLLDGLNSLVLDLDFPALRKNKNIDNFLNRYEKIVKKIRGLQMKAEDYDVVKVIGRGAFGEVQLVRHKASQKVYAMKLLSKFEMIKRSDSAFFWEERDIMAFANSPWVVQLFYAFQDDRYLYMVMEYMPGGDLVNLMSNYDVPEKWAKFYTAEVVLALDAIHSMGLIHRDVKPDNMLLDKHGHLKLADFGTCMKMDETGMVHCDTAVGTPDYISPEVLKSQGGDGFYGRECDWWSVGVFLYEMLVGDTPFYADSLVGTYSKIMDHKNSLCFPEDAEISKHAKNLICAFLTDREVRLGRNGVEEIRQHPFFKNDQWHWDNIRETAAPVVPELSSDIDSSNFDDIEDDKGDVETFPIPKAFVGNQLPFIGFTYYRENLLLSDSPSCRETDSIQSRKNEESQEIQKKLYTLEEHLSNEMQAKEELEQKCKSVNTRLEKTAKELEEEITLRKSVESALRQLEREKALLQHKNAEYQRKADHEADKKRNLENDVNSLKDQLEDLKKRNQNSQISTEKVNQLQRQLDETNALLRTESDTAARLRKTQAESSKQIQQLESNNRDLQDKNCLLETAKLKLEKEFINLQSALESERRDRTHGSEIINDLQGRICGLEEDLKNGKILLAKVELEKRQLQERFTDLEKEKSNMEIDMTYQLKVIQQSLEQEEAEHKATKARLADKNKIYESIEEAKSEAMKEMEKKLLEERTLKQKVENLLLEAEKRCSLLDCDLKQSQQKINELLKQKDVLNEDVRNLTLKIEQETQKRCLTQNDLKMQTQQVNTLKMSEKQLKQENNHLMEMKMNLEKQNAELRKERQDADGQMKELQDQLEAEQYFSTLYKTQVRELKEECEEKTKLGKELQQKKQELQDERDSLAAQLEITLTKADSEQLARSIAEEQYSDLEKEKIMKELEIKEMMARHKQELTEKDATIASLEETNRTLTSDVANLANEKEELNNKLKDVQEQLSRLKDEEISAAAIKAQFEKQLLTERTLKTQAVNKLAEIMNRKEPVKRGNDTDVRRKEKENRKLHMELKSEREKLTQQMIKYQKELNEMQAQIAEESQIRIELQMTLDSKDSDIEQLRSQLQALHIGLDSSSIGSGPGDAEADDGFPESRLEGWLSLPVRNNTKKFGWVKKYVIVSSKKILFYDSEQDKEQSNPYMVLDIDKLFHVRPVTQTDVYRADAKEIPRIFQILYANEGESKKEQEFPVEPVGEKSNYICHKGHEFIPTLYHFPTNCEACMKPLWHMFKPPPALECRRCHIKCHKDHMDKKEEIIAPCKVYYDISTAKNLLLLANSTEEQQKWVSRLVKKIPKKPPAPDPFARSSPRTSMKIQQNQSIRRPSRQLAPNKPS

[21] = molecular target: G protein-coupled receptor kinase 3 (Homo sapiens) (UniProt P35626); details: Compound concentration 1000.0 nM
[22] = molecular target: Megakaryocyte-associated tyrosine-protein kinase (Homo sapiens) (UniProt P42679); details: Compound concentration 1000.0 nM
[23] = molecular target: Dual specificity mitogen-activated protein kinase kinase 7 (Homo sapiens) (UniProt O14733); details: Compound concentration 1000.0 nM
[24] = molecular target: Ribosomal protein S6 kinase alpha-4 (Homo sapiens) (UniProt O75676); details: Compound concentration 1000.0 nM
[25] = molecular target: Serine/threonine-protein kinase 25 (Homo sapiens) (UniProt O00506); details: Compound concentration 1000.0 nM
[26] = molecular target: Leucine-rich repeat serine/threonine-protein kinase 2 (Homo sapiens) (UniProt Q5S007); details: Compound concentration 1000.0 nM
[27] = molecular target: Serine/threonine-protein kinase Sgk1 (Homo sapiens) (UniProt O00141); details: Compound concentration 1000.0 nM
[28] = molecular target: Alpha-2C adrenergic receptor (Homo sapiens) (UniProt P18825); details: Compound concentration 10.0 uM
[29] = molecular target: Dual specificity mitogen-activated protein kinase kinase 5 (Homo sapiens) (UniProt Q13163); details: Compound concentration 1000.0 nM
[30] = molecular target: Calcium/calmodulin-dependent protein kinase type II subunit alpha (Homo sapiens) (UniProt Q9UQM7); details: Compound concentration 1000.0 nM
[31] = molecular target: Phosphatidylinositol 3-kinase C2 domain-containing subunit gamma (Homo sapiens) (UniProt O75747); details: Compound concentration 1000.0 nM
[32] = molecular target: Kappa-type opioid receptor (Homo sapiens) (UniProt P41145); details: Compound concentration 10.0 uM
Kappa-type opioid receptor (Homo sapiens), sequence (P41145 whole entry): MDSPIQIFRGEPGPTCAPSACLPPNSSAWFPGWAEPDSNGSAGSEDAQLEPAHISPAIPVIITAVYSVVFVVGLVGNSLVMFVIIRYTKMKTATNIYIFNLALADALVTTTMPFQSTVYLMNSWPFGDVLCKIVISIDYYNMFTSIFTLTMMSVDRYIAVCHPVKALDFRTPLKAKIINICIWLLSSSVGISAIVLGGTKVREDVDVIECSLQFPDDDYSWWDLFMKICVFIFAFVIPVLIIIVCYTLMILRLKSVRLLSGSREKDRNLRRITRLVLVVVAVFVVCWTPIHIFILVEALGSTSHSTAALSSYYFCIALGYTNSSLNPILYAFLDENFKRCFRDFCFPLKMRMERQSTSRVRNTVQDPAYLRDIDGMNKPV

[33] = molecular target: Myosin-IIIb (Homo sapiens) (UniProt Q8WXR4); details: Compound concentration 1000.0 nM
[34] = molecular target: Bone morphogenetic protein receptor type-2 (Homo sapiens) (UniProt Q13873); details: Compound concentration 1000.0 nM
[35] = molecular target: Mitogen-activated protein kinase 12 (Homo sapiens) (UniProt P53778); details: Compound concentration 1000.0 nM
[36] = molecular target: Wee1-like protein kinase 2 (Homo sapiens) (UniProt P0C1S8); details: Compound concentration 1000.0 nM
[37] = molecular target: Serine/threonine-protein kinase 24 (Homo sapiens) (UniProt Q9Y6E0); details: Compound concentration 1000.0 nM
[38] = molecular target: Mitogen-activated protein kinase 15 (Homo sapiens) (UniProt Q8TD08); details: Compound concentration 1000.0 nM
[39] = molecular target: Serine/threonine-protein kinase Sgk3 (Homo sapiens) (UniProt Q96BR1); details: Compound concentration 1000.0 nM
[40] = molecular target: Serine/threonine-protein kinase RIO3 (Homo sapiens) (UniProt O14730); details: Compound concentration 1000.0 nM
[41] = molecular target: Interleukin-1 receptor-associated kinase 3 (Homo sapiens) (UniProt Q9Y616); details: Compound concentration 1000.0 nM
[42] = system: Epidermal growth factor receptor (Homo sapiens), P00533 [G719S]; details: Compound concentration 1000.0 nM
[43] = molecular target: G protein-coupled receptor kinase 4 (Homo sapiens) (UniProt P32298); details: Compound concentration 1000.0 nM
[44] = molecular target: Dual specificity mitogen-activated protein kinase kinase 1 (Homo sapiens) (UniProt Q02750); details: Compound concentration 1000.0 nM
Dual specificity mitogen-activated protein kinase kinase 1 (Homo sapiens), sequence (Q02750 whole entry, the tested form may be a part): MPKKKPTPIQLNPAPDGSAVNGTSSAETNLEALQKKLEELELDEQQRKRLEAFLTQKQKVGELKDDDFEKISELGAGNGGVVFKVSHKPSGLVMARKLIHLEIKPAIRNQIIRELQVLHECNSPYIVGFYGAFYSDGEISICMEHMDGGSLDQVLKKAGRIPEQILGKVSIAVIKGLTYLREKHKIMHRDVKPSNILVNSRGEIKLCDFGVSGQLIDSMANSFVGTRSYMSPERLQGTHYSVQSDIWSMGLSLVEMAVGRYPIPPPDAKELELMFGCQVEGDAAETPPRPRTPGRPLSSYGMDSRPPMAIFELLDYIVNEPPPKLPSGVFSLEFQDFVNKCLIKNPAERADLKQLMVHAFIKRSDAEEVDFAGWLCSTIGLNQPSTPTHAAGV

[45] = molecular target: Epithelial discoidin domain-containing receptor 1 (Homo sapiens) (UniProt Q08345); details: Compound concentration 1000.0 nM

Cc1cc(-n2nc(Cc3cc(F)cc(C(F)(F)F)c3)nc2C)ccc1C(N)=O [TP-024]
inactive: residual activity [1] 100% | residual activity [2] 100% | residual activity [3] 100% | residual activity [4] 100% | residual activity [5] 100% | residual activity [6] 91% | residual activity [7] 100% | residual activity [8] 100% | residual activity [9] 100% | residual activity [10] 97% | residual activity [11] 100% | residual activity [12] 97% | residual activity [13] 98% | residual activity [14] 100% | residual activity [15] 77% | residual activity [16] 100% | residual activity [17] 100% | residual activity [18] 100% | residual activity [19] 83% | residual activity [20] 96% | residual activity [21] 100% | residual activity [22] 100% | residual activity [23] 100% | residual activity [24] 100% | residual activity [25] 89% | residual activity [26] 99% | residual activity [27] 100% | inhibition [28] 9.76% | residual activity [29] 100% | residual activity [30] 99% | residual activity [31] 100% | inhibition [32] 16% | residual activity [33] 100% | residual activity [34] 100% | residual activity [35] 100% | residual activity [36] 100% | residual activity [37] 100% | residual activity [38] 95% | residual activity [39] 80% | residual activity [40] 100% | residual activity [41] 100% | residual activity [42] 100% | residual activity [43] 100% | residual activity [44] 100% | residual activity [45] 86%

Cc1nc(Cc2cccc(C(F)(F)F)c2)sc1-c1ccc(C(N)=O)nc1 [TP-024n]
inactive: residual activity [1] 100% | residual activity [2] 100% | residual activity [3] 100% | residual activity [4] 100% | residual activity [5] 97% | residual activity [6] 77% | residual activity [7] 100% | residual activity [8] 99% | residual activity [9] 100% | residual activity [10] 95% | residual activity [11] 97% | residual activity [12] 88% | residual activity [13] 100% | residual activity [14] 79% | residual activity [15] 83% | residual activity [16] 100% | residual activity [17] 69% | residual activity [18] 99% | residual activity [19] 81% | residual activity [20] 59% | residual activity [21] 100% | residual activity [22] 100% | residual activity [23] 100% | residual activity [24] 100% | residual activity [25] 88% | residual activity [26] 92% | residual activity [27] 100% | inhibition [28] 8.38% | residual activity [29] 85% | residual activity [30] 91% | residual activity [31] 93% | inhibition [32] 3.47% | residual activity [33] 100% | residual activity [34] 100% | residual activity [35] 100% | residual activity [36] 100% | residual activity [37] 100% | residual activity [38] 100% | residual activity [39] 100% | residual activity [40] 100% | residual activity [41] 100% | residual activity [42] 67% | residual activity [43] 100% | residual activity [44] 100% | residual activity [45] 100%
